Results reported in US11066447B2, “Aureobasidium derivatives and methods of synthesis” (AureoGen Biosciences, Inc., priority 2016, dated 2021).
Converted amounts (≈) assume the structure as drawn. “And” between values parts separate entries of the source, which are not always exact repeats. Equal values may be shown once. Read-outs that look alike come from different tables or passages of the source. Numbered stars: 1 amine (or outer) side, 2 acyl side, 3 side chain; on linkers, the order of the positions; unused ones are H or OH. Square brackets hold non-standard residues; d marks the D form. Peptide text beside a SMILES is read from it. ξ: configuration not given here. X8 = CC(=O)N1CCN(c2ccc(-c3cccc(C[C@@H](C(=O)[*:2])N(C)[*:1])c3)cn2)CC1; X1 = CC(C)N1CCN(c2ccc(-c3cccc(C[C@@H](C(=O)[*:2])N(C)[*:1])c3)cc2)CC1; X7 = CC(C)N1CCN(c2ccc(-c3cccc(C[C@H](N[*:1])C(=O)[*:2])c3)cc2)CC1; X9 = CN1CCN(c2cccc(-c3cccc(C[C@@H](C(=O)[*:2])N(C)[*:1])c3)n2)CC1; X10 = CN([C@@H](Cc1cccc(-c2ccc(N3CCNCC3)nc2)c1)C(=O)[*:2])[*:1]; NMePhe(3-(3-pyridyl)) = CN[C@@H](Cc1cccc(-c2cccnc2)c1)C(=O)O; X36 = CN([C@@H](Cc1ccc(-c2cccnc2)cc1)C(=O)[*:2])[*:1]; Hmp(2R,3S) = CC[C@H](C)[C@@H](O)C(=O)O; NMeVal(β-OH) = CN[C@H](C(=O)O)C(C)(C)O; X6 = CCC(C)[C@@H](O[*:1])C(=O)[*:2]; ξNMeVal(3-OH) = CNC(C(=O)O)C(C)(C)O; Ile(3ξ) = CCC(C)[C@H](N)C(=O)O; NMeV = CN[C@H](C(=O)O)C(C)C; ξL = CC(C)CC(N)C(=O)O

Assays:
[1] = test system: C. albicans MMX 2000 ATCC 10231; assay: MIC assay (CLSI microdilution); assay type: cell-based; details: Candida albicans, ATCC10231, Without Tween-80; read-out: MIC
[2] = test system: A. niger MMX 0624 ATCC 16888; assay: MIC/MEC assay (CLSI microdilution); assay type: cell-based; details: Aspergillus niger, ATCC16888, 48 h; for minimal effective concentration: RPMI plus 0.002% Tween-80, read-out: MEC; for MIC: RPMI plus 0.002% Tween-80, read-out: MIC
How it was run: (§1)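 Aspergillus isolates received approx. 0.2-2.5×10^4 CFU/mL final inoculum in RPMI-1640 plus 0.002% Tween-80, per CLSI microdilution. MMX 5280 was additionally run without Tween-80. Test compounds were serially diluted two-fold in 95% ethanol.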

A. flavus MMX 5948 = assay: MIC/MEC assay (CLSI microdilution); assay type: cell-based; details: Aspergillus flavus, MMX5948, 48 h; for minimal effective concentration: RPMI plus 0.002% Tween-80; for MIC: RPMI plus 0.002% Tween-80, read-out: MIC
How it was run: as §1

A. fumigatus MMX 5944 = assay: MIC/MEC assay (CLSI microdilution); assay type: cell-based; details: Aspergillus fumigatus, MMX5944, 48 h; for minimal effective concentration: RPMI plus 0.002% Tween-80; for MIC: RPMI plus 0.002% Tween-80, read-out: MIC
How it was run: as §1

[3] = test system: A. fumigatus MMX 6782 ATCC 13073; assay: MIC/MEC assay (CLSI microdilution); assay type: cell-based; details: for minimal effective concentration: RPMI plus 0.002% Tween-80, read-out: MEC
How it was run: as §1

[4] = test system: A. fumigatus from Aureogen; assay: MIC/MEC assay (CLSI microdilution); assay type: cell-based; details: Aspergillus fumigatus, 48 h; for minimal effective concentration: RPMI plus 0.002% Tween-80; for MIC: RPMI plus 0.002% Tween-80, read-out: MIC
How it was run: as §1

[5] = test system: A. fumigatus MMX 6781 ATCC MYA-4609; assay: MIC/MEC assay (CLSI microdilution); assay type: cell-based
How it was run: as §1

[6] = test system: C. parapsilosis MMX 2323 ATCC 22019; assay: MIC assay (CLSI microdilution); assay type: cell-based, Candida parapsilosis; details: read-out: MIC
How it was run: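 Broth microdilution MIC testing of Candida parapsilosis ATCC 22019 followed CLSI methods in RPMI-1640, with or without 0.002% Tween-80. Yeast grown 48 hours at 35° C on Sabouraud dextrose agar was suspended to a 0.5 McFarland standard and diluted 1:100 to roughly 0.5-2.5×10^3 CFU/mL. The MIC was the lowest concentration preventing visible growth.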

[7] = test system: C. neoformans MMX 0634 ATCC 90112; assay: MIC assay (CLSI microdilution); assay type: cell-based; details: Cryptococcus neoformans, ATCC90112, 72 h, 72 hour; RPMI plus 0.002% Tween-80; read-out: MIC
[8] = test system: C. albicans MMX 2000 ATCC 10231; assay: MIC assay (CLSI microdilution); assay type: cell-based; details: Candida albicans, ATCC10231, RPMI plus 0.002% Tween-80; read-out: MIC
[9] = test system: A. fumigatus MMX 5280 ATCC MYA-3626; assay: MIC/MEC assay (CLSI microdilution); assay type: cell-based, Aspergillus fumigatus
How it was run: as §1

A. fumigates = assay: Antifungal activity of separated positional isomers of Compound X; assay type: cell-based
Experimental: Test Procedure. The MIC assay method followed the procedure described by CLSI (1, 2) and employed automated liquid handlers to conduct serial dilutions and liquid transfers. Automated liquid handlers included the Multidrop 384 (Labsystems, Helsinki, Finland), Biomek 2000 and Biomek FX (Beckman Coulter, Fullerton Calif.). The wells in columns 2-12 in standard 96-well microdilution plates (Costar 3795) were filled with 150 μl of the appropriate diluent (95% EtOH for investigational compounds, 100% DMSO for amphotericin B). These assay plates would become the ‘mother plates’ from which the assay ‘daughter plates’ would be prepared. The drugs (300 μL at 40× the desired top concentration in the test plates) were dispensed into the appropriate well in Column 1 of the mother plates. The Biomek 2000 was used to make two-fold serial dilutions through Column 11 in the “mother plate”. The wells of Column 12 contained no drug and served as the organism growth control wells.
The microplates were viewed from the bottom using a plate viewer. […] The MIC was read and recorded as the lowest concentration of drug that inhibited visible growth of the organism. MECs were read where the growth shifted to a small, rounded, compact hyphal form as compared to the hyphal growth seen in the growth control well. […]

[10] = Aspergillus fumigatus, ATCC13073, 48 h
[11] = Aspergillus fumigatus, ATCC13073, 48 h, RPMI plus 0.002% Tween-80, read-out: MIC
[12] = RPMI plus 0.002% Tween-80, 48 hr
[13] = ATCC22019, RPMI plus 0.002% Tween-80
[14] = Aspergillus fumigatus, 48 h, Without Tween-80, read-out: MIC
[15] = Aspergillus fumigatus, 48 h, RPMI plus 0.002% Tween-80, read-out: MEC
[16] = Aspergillus fumigatus, 48 h, RPMI plus 0.002% Tween-80, read-out: MIC
[17] = Aspergillus fumigatus, RPMI plus 0.002% Tween-80, 48 hr
[18] = Aspergillus fumigatus, 48 h, Without Tween-80, read-out: MEC

Structure (SMILES)	MIC [1]	minimal effective concentration [2]	MIC [2]	minimal effective concentration (A. flavus MMX 5948)	MIC (A. flavus MMX 5948)	minimal effective concentration (A. fumigatus MMX 5944)	MIC (A. fumigatus MMX 5944)	minimal effective concentration [3, 10]	MIC [3, 11]	minimal effective concentration [4]	MIC [4]	MEC [5, 12]	MIC [5, 12]	MIC [6, 13]	MIC ([6]; ATCC22019, Without Tween-80)	MIC [7]	MIC [8]	MIC [9, 14]	minimal effective concentration [9, 15]	MIC [9, 16]	also measured
CC[C@H](C)[C@@H]1NC(=O)[C@@H]2CCCN2C(=O)[C@H](Cc2cccc(-c3ccc(N4CCNCC4)nc3)c2)N(C)C(=O)[C@H](Cc2ccccc2)NC(=O)[C@H](C(C)C)N(C)C(=O)[C@@H]([C@@H](C)CC)OC(=O)[C@H](C(C)(C)O)N(C)C(=O)[C@H](CC(C)C)NC(=O)[C@H](C(C)C)N(C)C1=O [Compound 30] (cyclo(F[X10]PI[NMeV]L[NMeVal(β-OH)][Hmp(2R,3S)][NMeV]))	0.5 µg/mL (≈ 0.396 µM)	0.5 µg/mL	0.5 µg/mL	0.12 µg/mL	0.5 µg/mL	0.5 µg/mL	1 µg/mL	0.5 µg/mL	2 µg/mL	0.5 µg/mL	1 µg/mL	1 µg/mL	2 µg/mL	0.06 µg/mL	2 µg/mL (≈ 1.58 µM)	0.25 µg/mL	0.015 µg/mL	2 µg/mL (≈ 1.58 µM)	–	–	MEC [9, 12]: 1 µg/mL; MIC [9, 12]: 2 µg/mL; MEC ([9]; Without Tween-80, 48 hr): 1 µg/mL
CC[C@H](C)[C@@H]1NC(=O)[C@@H]2CCCN2C(=O)[C@H](Cc2cccc(-c3ccc(N4CCN(C(C)C)CC4)cc3)c2)N(C)C(=O)[C@H](Cc2cccc(-c3ccc(N4CCN(C(C)C)CC4)cc3)c2)NC(=O)[C@H](C(C)C)N(C)C(=O)[C@@H]([C@@H](C)CC)OC(=O)[C@H](C(C)(C)O)N(C)C(=O)[C@H](CC(C)C)NC(=O)[C@H](C(C)C)N(C)C1=O [Compound 31] (cyclo(I[NMeV]L[NMeVal(β-OH)][Hmp(2R,3S)][NMeV][X7][X1]P))	1 µg/mL (≈ 0.664 µM)	0.5 µg/mL	1 µg/mL	0.12 µg/mL	0.5 µg/mL	0.5 µg/mL	1 µg/mL	–	–	0.25 µg/mL	0.5 µg/mL	1 µg/mL	2 µg/mL	0.5 µg/mL	2 µg/mL (≈ 1.33 µM)	1 µg/mL	0.06 µg/mL	1 µg/mL (≈ 0.664 µM)	0.5 µg/mL	2 µg/mL	MEC [3, 12]: 1 µg/mL; MIC [3, 12]: 2 µg/mL; MEC ([9]; Without Tween-80, 48 hr): 1/1 μg/mL and 1 μg/mL; MIC ([9]; Without Tween-80, 48 hr): 2 µg/mL (≈ 1.33 µM)
CC[C@H](C)[C@@H]1NC(=O)[C@@H]2CCCN2C(=O)[C@H](Cc2cccc(-c3ccc(N4CCN(C(C)=O)CC4)nc3)c2)N(C)C(=O)[C@H](Cc2ccccc2)NC(=O)[C@H](C(C)C)N(C)C(=O)[C@@H]([C@@H](C)CC)OC(=O)[C@H](C(C)(C)O)N(C)C(=O)[C@H](CC(C)C)NC(=O)[C@H](C(C)C)N(C)C1=O [Compound 32] (cyclo(F[X8]PI[NMeV]L[NMeVal(β-OH)][Hmp(2R,3S)][NMeV]))	2 µg/mL (≈ 1.53 µM)	0.5 µg/mL	1 µg/mL	0.25 µg/mL	1 µg/mL	1 µg/mL	> 64 µg/mL	> 64 µg/mL	> 64 µg/mL	> 64 µg/mL	> 64 µg/mL	–	–	0.25 µg/mL	2 µg/mL (≈ 1.53 µM)	2 µg/mL	0.03 µg/mL	> 64 µg/mL	2 µg/mL	> 64 µg/mL	MIC [5, 16]: > 64 µg/mL; minimal effective concentration [5, 17]: > 64 µg/mL; minimal effective concentration [9, 18]: > 64 µg/mL
CC[C@H](C)[C@@H]1NC(=O)[C@@H]2CCCN2C(=O)[C@H](Cc2cccc(-c3cccc(N4CCN(C)CC4)n3)c2)N(C)C(=O)[C@H](Cc2ccccc2)NC(=O)[C@H](C(C)C)N(C)C(=O)[C@@H]([C@@H](C)CC)OC(=O)[C@H](C(C)(C)O)N(C)C(=O)[C@H](CC(C)C)NC(=O)[C@H](C(C)C)N(C)C1=O [Compound 33] (cyclo(F[X9]PI[NMeV]L[NMeVal(β-OH)][Hmp(2R,3S)][NMeV]))	0.5 µg/mL (≈ 0.392 µM)	0.03 µg/mL	0.03 µg/mL	0.12 µg/mL	0.5 µg/mL	0.5 µg/mL	0.5 µg/mL	0.06 µg/mL	0.12 µg/mL	0.06 µg/mL	0.06 µg/mL	–	–	0.03 µg/mL	0.5 µg/mL (≈ 0.392 µM)	0.06 µg/mL	0.004 µg/mL	1 µg/mL (≈ 0.783 µM)	0.015 µg/mL	0.25 µg/mL	MIC [5, 16]: 0.12 µg/mL; minimal effective concentration [5, 17]: 0.03 µg/mL; minimal effective concentration [9, 18]: 0.5 µg/mL
CCC(C)[C@@H]1NC(=O)[C@@H]2CCCN2C(=O)[C@H](Cc2cccc(-c3cccnc3)c2)N(C)C(=O)[C@H](Cc2ccccc2)NC(=O)[C@H](C(C)C)N(C)C(=O)[C@@H](C(C)CC)OC(=O)C(C(C)(C)O)N(C)C(=O)C(CC(C)C)NC(=O)[C@H](C(C)C)N(C)C1=O (stereo partly drawn) [meta-substituted positional isomer of Compound X] (cyclo(F[NMePhe(3-(3-pyridyl))]P[Ile(3ξ)][NMeV][ξL][ξNMeVal(3-OH)][X6][NMeV]))	–	–	–	–	–	–	–	–	–	–	–	–	–	–	–	–	–	–	–	–	MIC (A. fumigates): 0.6 µg/mL (≈ 0.509 µM)
CCC(C)[C@@H]1NC(=O)[C@@H]2CCCN2C(=O)[C@H](Cc2ccc(-c3cccnc3)cc2)N(C)C(=O)[C@H](Cc2ccccc2)NC(=O)[C@H](C(C)C)N(C)C(=O)[C@@H](C(C)CC)OC(=O)C(C(C)(C)O)N(C)C(=O)C(CC(C)C)NC(=O)[C@H](C(C)C)N(C)C1=O (stereo partly drawn) [para substituted positional isomer of Compound X] (cyclo(F[X36]P[Ile(3ξ)][NMeV][ξL][ξNMeVal(3-OH)][X6][NMeV]))	–	–	–	–	–	–	–	–	–	–	–	–	–	–	–	–	–	–	–	–	MIC (A. fumigates): > 2.5 µg/mL
